Data from ChEMBL document CHEMBL3885861, “Open TG-GATES”.

Organism: Rattus norvegicus
Assay: Open TG-GATES - Regimen: Single
Format: toxicity, organism-based, Sprague-Dawley
Parameters: regimen Single, gender Male, age 6 weeks
Details: in vivo, po, 2000 mg/kg, route gavage, dose level High; for APTT / Bas / Eos / Fbg / Hb / Ht / Lym / MCH / MCHC / MCV / Mono / Neu / PT / Plat / RBC / Ret / WBC: tissue Blood; for KIDNEY_L / KIDNEY_R / KIDNEY_TOTAL: tissue Kidney; for LIVER: tissue Liver; for A/G / ALP / ALT / AST / BUN / CRE / Ca / Cl / DBIL / GLC / IP / K / LDH / Na / PL / RALB / TBIL / TC / TG / TP / gamma-GTP: tissue Plasma

## CCN1CCCC1CNC(=O)c1cc(S(N)(=O)=O)ccc1OC (configuration not stated) [SULPIRIDE]
3 h
  TERMINAL_BW: 201.8 g
  APTT: 18.6 s
  Bas: 0%
  Eos: 0.6%
  Fbg: 244.2 mg/dL
  Hb: 12.7 g/dL
  Ht: 39.6%
  Lym: 82%
  MCH: 21 pg
  MCHC: 32.2%
  MCV: 65.4 fL
  Mono: 3.2%
  Neu: 13%
  PT: 13.9 s
  Plat: 117.9 x10_4/uL
  RBC: 606.4 x10_4/ul
  Ret: 7.7%
  WBC: 82.3 x10_2/uL
  KIDNEY_L: 0.9 g
  KIDNEY_R: 0.9 g
  KIDNEY_TOTAL: 1.8 g
  LIVER: 9 g
  A/G: 0.9
  ALP: 1446.6 IU/L
  ALT: 42 IU/L
  AST: 74.6 IU/L
  BUN: 9.4 mg/dL
  CRE: 0.2 mg/dL
  Ca: 10.6 mg/dL
  Cl: 105.4 meq/L
  DBIL: 0.004 mg/dL
  GLC: 174 mg/dL
  IP: 8.8 mg/dL
  K: 3.9 meq/L
  LDH: 90.2 IU/L
  Na: 143.4 meq/L
  PL: 119.6 mg/dL
  RALB: 2.3 g/dL
  TBIL: 0.068 mg/dL
  TC: 57.6 mg/dL
  TG: 55 mg/dL
  TP: 4.9 g/dL
  gamma-GTP: 1.2 IU/L
6 h
  TERMINAL_BW: 199.5 g
  APTT: 17 s
  Bas: 0%
  Eos: 0.8%
  Fbg: 273 mg/dL
  Hb: 13 g/dL
  Ht: 40.9%
  Lym: 76.6%
  MCH: 20.9 pg
  MCHC: 31.9%
  MCV: 65.6 fL
  Mono: 2.6%
  Neu: 19%
  PT: 13.4 s
  Plat: 121.6 x10_4/uL
  RBC: 623.8 x10_4/ul
  Ret: 7.6%
  WBC: 63.1 x10_2/uL
  KIDNEY_L: 0.9 g
  KIDNEY_R: 0.9 g
  KIDNEY_TOTAL: 1.7 g
  LIVER: 8.1 g
  A/G: 0.9
  ALP: 1306.2 IU/L
  ALT: 39.6 IU/L
  AST: 74.2 IU/L
  BUN: 7.2 mg/dL
  CRE: 0.1 mg/dL
  Ca: 10.5 mg/dL
  Cl: 106.4 meq/L
  DBIL: 0 mg/dL
  GLC: 163.6 mg/dL
  IP: 9.1 mg/dL
  K: 4 meq/L
  LDH: 92 IU/L
  Na: 142.4 meq/L
  PL: 133.2 mg/dL
  RALB: 2.4 g/dL
  TBIL: 0.07 mg/dL
  TC: 72.2 mg/dL
  TG: 35.2 mg/dL
  TP: 5.2 g/dL
  gamma-GTP: 1 IU/L
9 h
  TERMINAL_BW: 199.2 g
  APTT: 19.7 s
  Bas: 0%
  Eos: 1%
  Fbg: 296.6 mg/dL
  Hb: 13.3 g/dL
  Ht: 41.7%
  Lym: 79.6%
  MCH: 20.1 pg
  MCHC: 32%
  MCV: 62.9 fL
  Mono: 2.2%
  Neu: 16.6%
  PT: 13.2 s
  Plat: 117.3 x10_4/uL
  RBC: 663.8 x10_4/ul
  Ret: 7.5%
  WBC: 63.8 x10_2/uL
  KIDNEY_L: 0.9 g
  KIDNEY_R: 0.9 g
  KIDNEY_TOTAL: 1.8 g
  LIVER: 7.5 g
  A/G: 0.9
  ALP: 1349.6 IU/L
  ALT: 30.8 IU/L
  AST: 67.4 IU/L
  BUN: 7.4 mg/dL
  CRE: 0.1 mg/dL
  Ca: 10.5 mg/dL
  Cl: 108.4 meq/L
  DBIL: 0.008 mg/dL
  GLC: 165.6 mg/dL
  IP: 10.1 mg/dL
  K: 4.3 meq/L
  LDH: 88.2 IU/L
  Na: 142 meq/L
  PL: 133.8 mg/dL
  RALB: 2.5 g/dL
  TBIL: 0.076 mg/dL
  TC: 73 mg/dL
  TG: 29 mg/dL
  TP: 5.3 g/dL
  gamma-GTP: 1.6 IU/L
24 h
  TERMINAL_BW: 209.1 g
  APTT: 16.6 s
  Bas: 0.2%
  Eos: 0.8%
  Fbg: 301.4 mg/dL
  Hb: 13.8 g/dL
  Ht: 42.8%
  Lym: 79.2%
  MCH: 20.4 pg
  MCHC: 32.3%
  MCV: 63.2 fL
  Mono: 3.6%
  Neu: 15.4%
  PT: 12.7 s
  Plat: 120.6 x10_4/uL
  RBC: 678.6 x10_4/ul
  Ret: 7%
  WBC: 97.3 x10_2/uL
  KIDNEY_L: 0.9 g
  KIDNEY_R: 0.9 g
  KIDNEY_TOTAL: 1.9 g
  LIVER: 9 g
  A/G: 0.9
  ALP: 1595.2 IU/L
  ALT: 40.6 IU/L
  AST: 64.8 IU/L
  BUN: 17.4 mg/dL
  CRE: 0.2 mg/dL
  Ca: 11.3 mg/dL
  Cl: 103.8 meq/L
  DBIL: 0.012 mg/dL
  GLC: 179.8 mg/dL
  IP: 9.3 mg/dL
  K: 4.8 meq/L
  LDH: 101 IU/L
  Na: 141.4 meq/L
  PL: 149.8 mg/dL
  RALB: 2.7 g/dL
  TBIL: 0.064 mg/dL
  TC: 86.2 mg/dL
  TG: 77 mg/dL
  TP: 5.7 g/dL
  gamma-GTP: 1 IU/L
